Peptide text beside a SMILES is read from it.
How the values were obtained:
CRF2R = target: T1, CRF2R (Homo sapiens, UniProt Q13324); assay: CRF2R agonist activation (EC50 / Emax), called comparative CRF binding; assay type: cell-based; settings: for EC50: read-out: CRF2R EC50; for Emax: read-out: CRF2R Emax
T1 sequence (Q13324 1-411): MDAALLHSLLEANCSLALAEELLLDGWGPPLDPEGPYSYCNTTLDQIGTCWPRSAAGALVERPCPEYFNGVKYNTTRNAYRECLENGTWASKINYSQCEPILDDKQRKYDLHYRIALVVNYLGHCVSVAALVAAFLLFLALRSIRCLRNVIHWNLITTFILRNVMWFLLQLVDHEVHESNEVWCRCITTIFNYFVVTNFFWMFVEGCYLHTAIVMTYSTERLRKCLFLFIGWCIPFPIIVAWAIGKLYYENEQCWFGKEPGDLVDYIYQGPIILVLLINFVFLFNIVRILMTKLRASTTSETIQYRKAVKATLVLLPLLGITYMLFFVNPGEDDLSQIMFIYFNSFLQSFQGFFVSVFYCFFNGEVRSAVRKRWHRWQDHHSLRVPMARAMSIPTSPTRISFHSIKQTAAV
Excerpt: (§1) The pharmacological activity and selectivity of the peptides of present invention can be determined using published test procedures. See, e.g, U.S. patent application Ser. No. 09/799,978 (now issued U.S. Pat. No. 6,670,140). Because CRF2R and CRF1R are homologous proteins, it is expected that a certain proportion of agonists for CRF2R will also function as agonists of CRF1R. As discussed above, activation of CRF1R induces activation of the HPA axis since increased corticosteroid production leads to skeletal muscle atrophy. In most cases in which an increase in muscle mass or function is desired, it is not desirable to activate the HPA axis.
(§2) Cell-based assays include the steps of contacting cells which express CRF1R or CRF2R with a peptide of the present invention or control and measuring activation of the CRFR by measuring the expression or activity of components of the CRFR signal transduction pathways.
(§3) For example, after contact with a peptide of the present invention, lysates of the cells can be prepared and assayed for induction of cAMP. cAMP is induced in response to Gαs activation. Because Gαs is activated by receptors other than CRFR and because a test peptide may be exerting its effect through CRFRs or by another mechanism, two control comparisons are relevant for determining whether the peptide increases levels of cAMP via activation of a CRFR. One control compares the cAMP level of cells contacted with the peptide and the cAMP level of cells contacted with a control compound (i.e., the vehicle in which the peptide is dissolved).
(§4) In one example, cAMP induction is measured with the use of DNA constructs containing the cAMP responsive element linked to any of a variety of reporter genes can be introduced into cells expressing CRFRs. Such reporter genes include, but are not limited to, chloramphenicol acetyltransferase (CAT), luciferase, glucuronide synthetase, growth hormone, fluorescent proteins (e.g., Green Fluorescent Protein), or alkaline phosphatase. Following exposure of the cells to the peptide, the level of reporter gene expression can be quantitated to determine the peptide's ability to increase cAMP levels and thus determine the peptide's ability to activate the CRFR.
(§5) In addition to using cells expressing full length CRFRs, cells can be engineered which express CRFRs containing the ligand binding domain of the receptor coupled to, or physically modified to contain, reporter elements or to interact with signaling proteins. For example, a wild type CRFR or CRFR fragment can be fused to a G-protein resulting in activation of the fused G-protein upon agonist binding to the CRFR portion of the fusion protein. […] In addition, alternative pathways for induction of the CRE reporter could be eliminated to reduce basal levels.

CRF1R = target: T2, CRF1R (Homo sapiens, UniProt P34998); assay: CRF1R agonist activation (EC50 / Emax), called comparative CRF binding; assay type: cell-based; settings: for EC50: read-out: CRF1R EC50; for Emax: read-out: CRF1R Emax
T2 sequence (P34998 24-415): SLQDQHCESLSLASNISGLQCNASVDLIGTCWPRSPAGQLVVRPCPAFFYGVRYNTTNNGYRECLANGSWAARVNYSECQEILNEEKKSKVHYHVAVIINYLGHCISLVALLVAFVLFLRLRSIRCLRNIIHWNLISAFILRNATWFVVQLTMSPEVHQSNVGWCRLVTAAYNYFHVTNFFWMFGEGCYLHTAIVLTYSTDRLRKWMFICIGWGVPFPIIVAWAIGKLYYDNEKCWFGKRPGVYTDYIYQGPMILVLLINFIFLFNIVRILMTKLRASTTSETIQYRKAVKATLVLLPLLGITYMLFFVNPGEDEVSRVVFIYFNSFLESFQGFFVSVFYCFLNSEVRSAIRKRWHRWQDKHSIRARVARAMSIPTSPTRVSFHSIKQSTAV
Excerpt: as §1, §2, §3, §4, §5

| SMILES | EC50 (CRF2R) [nM] | Emax (CRF2R) [%] | EC50 (CRF1R) [nM] | Emax (CRF1R) [%] |
| --- | --- | --- | --- | --- |
| CC[C@H](C)[C@H](N)C(=O)N[C@H](C(=O)N[C@@H](CC(C)C)C(=O)N[C@@H](CO)C(=O)N[C@@H](CC(C)C)C(=O)N[C@@H](CC(=O)O)C(=O)N[C@H](C(=O)N1CCC[C@H]1C(=O)N[C@H](C(=O)NCC(=O)N[C@@H](CC(C)C)C(=O)N[C@@H](CC(C)C)C(=O)N[C@@H](CCC(N)=O)C(=O)N[C@H](C(=O)N[C@@H](CC(C)C)C(=O)N[C@@H](CC(C)C)C(=O)N[C@@H](CCC(=O)O)C(=O)N[C@@H](CCC(N)=O)C(=O)N[C@@H](C)C(=O)N[C@@H](CCCCN)C(=O)N[C@@H](CCC(N)=O)C(=O)N[C@@H](CCCNC(=N)N)C(=O)N[C@@H](C)C(=O)N[C@@H](C)C(=O)N[C@@H](CCCNC(=N)N)C(=O)N[C@@H](CCC(=O)O)C(=O)N[C@@H](CCC(N)=O)C(=O)N[C@@H](C)C(=O)N[C@H](C(=O)N[C@H](C(=O)N[C@@H](CC(N)=O)C(=O)N[C@@H](C)C(=O)N[C@@H](CCCNC(=N)N)C(=O)N[C@H](C(=O)N[C@@H](CC(C)C)C(=O)N[C@@H](C)C(=O)N[C@@H](CCCNC(=N)N)C(=O)N[C@H](C(N)=O)C(C)C)[C@@H](C)CC)[C@@H](C)O)[C@@H](C)O)[C@@H](C)CC)[C@@H](C)CC)C(C)C)C(C)C [compound 110] (H-IVLSLDVPIGLLQILLEQAKQRAAREQATTNARILARV-NH2; N-terminus assumed) | 11 | 100 | > 100 | 9 |
| CC[C@H](C)[C@H](N)C(=O)N[C@H](C(=O)N[C@@H](CC(C)C)C(=O)N[C@@H](CO)C(=O)N[C@@H](CC(C)C)C(=O)N[C@@H](CC(=O)O)C(=O)N[C@H](C(=O)N1CCC[C@H]1C(=O)N[C@H](C(=O)NCC(=O)N[C@@H](CC(C)C)C(=O)N[C@@H](CC(C)C)C(=O)N[C@@H](CCC(N)=O)C(=O)N[C@H](C(=O)N[C@@H](CC(C)C)C(=O)N[C@@H](CC(C)C)C(=O)N[C@@H](CCC(=O)O)C(=O)N[C@@H](CCC(N)=O)C(=O)N[C@@H](CCC(=O)O)C(=O)N[C@@H](CCCNC(=N)N)C(=O)N[C@@H](CCC(N)=O)C(=O)N[C@@H](CCCNC(=N)N)C(=O)N[C@@H](C)C(=O)N[C@@H](C)C(=O)N[C@@H](CCCNC(=N)N)C(=O)N[C@@H](CCC(=O)O)C(=O)N[C@@H](CCC(N)=O)C(=O)N[C@@H](C)C(=O)N[C@H](C(=O)N[C@H](C(=O)N[C@@H](CC(N)=O)C(=O)N[C@@H](C)C(=O)N[C@@H](CCCNC(=N)N)C(=O)N[C@H](C(=O)N[C@@H](CC(C)C)C(=O)N[C@@H](C)C(=O)N[C@@H](CCCNC(=N)N)C(=O)N[C@H](C(N)=O)C(C)C)[C@@H](C)CC)[C@@H](C)O)[C@@H](C)O)[C@@H](C)CC)[C@@H](C)CC)C(C)C)C(C)C [compound 111] (H-IVLSLDVPIGLLQILLEQERQRAAREQATTNARILARV-NH2; N-terminus assumed) |  | 99 |  | 9 |
| CC[C@H](C)[C@H](N)C(=O)N[C@H](C(=O)N[C@@H](CC(C)C)C(=O)N[C@@H](CO)C(=O)N[C@@H](CC(C)C)C(=O)N[C@@H](CC(=O)O)C(=O)N[C@H](C(=O)N1CCC[C@H]1C(=O)N[C@H](C(=O)NCC(=O)N[C@@H](CC(C)C)C(=O)N[C@@H](CC(C)C)C(=O)N[C@@H](CCC(N)=O)C(=O)N[C@H](C(=O)N[C@@H](CC(C)C)C(=O)N[C@@H](CC(C)C)C(=O)N[C@@H](CCC(=O)O)C(=O)N[C@@H](CCC(N)=O)C(=O)N[C@@H](C)C(=O)N[C@@H](CCCCN)C(=O)N[C@@H](C)C(=O)N[C@@H](CCC(=O)O)C(=O)N[C@@H](C)C(=O)N[C@@H](C)C(=O)N[C@@H](CCCNC(=N)N)C(=O)N[C@@H](CCC(=O)O)C(=O)N[C@@H](CCC(N)=O)C(=O)N[C@@H](C)C(=O)N[C@H](C(=O)N[C@H](C(=O)N[C@@H](CC(N)=O)C(=O)N[C@@H](C)C(=O)N[C@@H](CCCNC(=N)N)C(=O)N[C@H](C(=O)N[C@@H](CC(C)C)C(=O)N[C@@H](C)C(=O)N[C@@H](CCCNC(=N)N)C(=O)N[C@H](C(N)=O)C(C)C)[C@@H](C)CC)[C@@H](C)O)[C@@H](C)O)[C@@H](C)CC)[C@@H](C)CC)C(C)C)C(C)C [compound 112] (H-IVLSLDVPIGLLQILLEQAKAEAAREQATTNARILARV-NH2; N-terminus assumed) | 12.3 | 100 | > 100 | 10 |
| CC[C@H](C)[C@H](N)C(=O)N[C@H](C(=O)N[C@@H](CC(C)C)C(=O)N[C@@H](CO)C(=O)N[C@@H](CC(C)C)C(=O)N[C@@H](CC(=O)O)C(=O)N[C@H](C(=O)N1CCC[C@H]1C(=O)N[C@H](C(=O)NCC(=O)N[C@@H](CC(C)C)C(=O)N[C@@H](CC(C)C)C(=O)N[C@@H](CCC(N)=O)C(=O)N[C@H](C(=O)N[C@@H](CC(C)C)C(=O)N[C@@H](CC(C)C)C(=O)N[C@@H](CCC(=O)O)C(=O)N[C@@H](CCC(N)=O)C(=O)N[C@@H](CCC(=O)O)C(=O)N[C@@H](CCCNC(=N)N)C(=O)N[C@@H](C)C(=O)N[C@@H](CCC(=O)O)C(=O)N[C@@H](C)C(=O)N[C@@H](C)C(=O)N[C@@H](CCCNC(=N)N)C(=O)N[C@@H](CCC(=O)O)C(=O)N[C@@H](CCC(N)=O)C(=O)N[C@@H](C)C(=O)N[C@H](C(=O)N[C@H](C(=O)N[C@@H](CC(N)=O)C(=O)N[C@@H](C)C(=O)N[C@@H](CCCNC(=N)N)C(=O)N[C@H](C(=O)N[C@@H](CC(C)C)C(=O)N[C@@H](C)C(=O)N[C@@H](CCCNC(=N)N)C(=O)N[C@H](C(N)=O)C(C)C)[C@@H](C)CC)[C@@H](C)O)[C@@H](C)O)[C@@H](C)CC)[C@@H](C)CC)C(C)C)C(C)C [compound 113] (H-IVLSLDVPIGLLQILLEQERAEAAREQATTNARILARV-NH2; N-terminus assumed) | 11.3 | 98 | > 100 | 4 |
| CC[C@H](C)[C@H](N)C(=O)N[C@H](C(=O)N[C@@H](CC(C)C)C(=O)N[C@@H](CO)C(=O)N[C@@H](CC(C)C)C(=O)N[C@@H](CC(=O)O)C(=O)N[C@H](C(=O)N1CCC[C@H]1C(=O)N[C@H](C(=O)NCC(=O)N[C@@H](CC(C)C)C(=O)N[C@@H](CC(C)C)C(=O)N[C@@H](CCC(N)=O)C(=O)N[C@H](C(=O)N[C@@H](CC(C)C)C(=O)N[C@@H](CC(C)C)C(=O)N[C@@H](CCC(=O)O)C(=O)N[C@@H](CCC(N)=O)C(=O)N[C@@H](C)C(=O)N[C@@H](CCCNC(=N)N)C(=O)N[C@@H](CCC(N)=O)C(=O)N[C@@H](CCCNC(=N)N)C(=O)N[C@@H](C)C(=O)N[C@@H](C)C(=O)N[C@@H](CCCNC(=N)N)C(=O)N[C@@H](CCC(=O)O)C(=O)N[C@@H](CCC(N)=O)C(=O)N[C@@H](C)C(=O)N[C@H](C(=O)N[C@H](C(=O)N[C@@H](CC(N)=O)C(=O)N[C@@H](C)C(=O)N[C@@H](CCCNC(=N)N)C(=O)N[C@H](C(=O)N[C@@H](CC(C)C)C(=O)N[C@@H](C)C(=O)N[C@@H](CCCNC(=N)N)C(=O)N[C@H](C(N)=O)C(C)C)[C@@H](C)CC)[C@@H](C)O)[C@@H](C)O)[C@@H](C)CC)[C@@H](C)CC)C(C)C)C(C)C [compound 114] (H-IVLSLDVPIGLLQILLEQARQRAAREQATTNARILARV-NH2; N-terminus assumed) |  | 100 |  | 6 |

From patent US6936585B2, “Corticotropin releasing factor 2 receptor agonists” (priority 2002, dated 2005)
